In patent publication US20250319078A1, “METHOD FOR SYNERGISTIC ENHANCEMENT OF REMYELINATION VIA MODULATION OF RXR AND A HETERODIMERIC PARTNER” (THE SCRIPPS RESEARCH INSTITUTE, priority 2022, published 2025):

What was measured:
[1] = test system: rat optic nerve derived OPCs; assay: cell-based OPC differentiation assay quantifying % MBP-positive OLs by immunofluorescence after 6 days of treatment; conditions: for effect on % T3-induced MBP+OLs in combination with bexarotene (phenocopy of tasin-1, tamoxifen, LXR antagonist): heat maps, average n=3; for activity in enhancing OPC differentiation alone: single agent, without RXR activation
Source text: Combination-based screening and evaluation of LXR modulators. Pairwise screening of bexarotene and partner compounds was done in matrices of 9-12 doses for each and transferred onto 3 separate 384-well plates. […] Heat maps were generated using Prism to highlight impact of the combinations relative to baseline controls.
We evaluated various reported inhibitors of CYP51, TM7SF2 and EBP for their ability to enhance bexarotene-induced remyelination. We quantified activity based on immunofluorescence analysis of % MBP+OLs after 6 days of compound treatment, with vehicle/DMSO, clemastine and triiodothyronine (T3) controls on each plate using rat optic nerve derived OPCs.

[2] = dose of bexarotene used in the CCMR One trial; read-out: predicted Cmax; cited from earlier work
LXR = assay: confocal imaging and line profile analysis of LXR localization in OPCs/oligodendrocytes; type: cell-based; conditions: 6 days of treatment; immunofluorescence, confocal imaging
Procedure: Confocal imaging and analysis of LXR expression. […] OPCs were then seeded at a density of 1,000 cells per well, and the plates were incubated at 37° C. with 5% CO2 for 6 d. On day 6, cells were then fixed for 20 min with 4% formaldehyde solution and stained with anti-LXRalpha/beta antibody (cat. #sc-271064, Santa Cruz Biotechnology) in 3% BSA, 0.3% Triton X-100 with overnight incubation at 4° C. The cells were washed and incubated with secondary antibody (Alexa Fluor 488 goat anti-mouse IgG, Life Technologies) and Hoechst 33342 (Invitrogen) for 1 h at room temperature. The cells were washed and plates were sealed and imaged using a Cellomics Cell Insight imaging reader (Thermo). Randomly-selected fields from 6 wells selected at random were imaged at 50× magnification using a Zeiss 780 confocal microscope. 10 cells within images from each treatment group were randomly selected for line profile analysis.
A line profile analysis of fluorescent intensities was performed by drawing an 18.5 μm line through the center of individual cells (n=10), from approximately 2-4 microns beyond the nuclear membrane on each side using the Fiji image processing platform. Fluorescence intensities over distance (μm) was graphed using Prism 9 software (GraphPad).

[3] = 20 mg daily dose of tamoxifen; cited from earlier work

Structure (SMILES)	effect on % T3-induced MBP+OLs in combination with bexarotene (phenocopy of tasin-1, tamoxifen, LXR antagonist) [1]	activity in enhancing OPC differentiation alone [1]	localization of LXR following treatment (LXR)	other results
CC(C)=CCC[C@@H](C)[C@H]1CC=C2C3=C(CC[C@@]21C)[C@@]1(C)CC[C@H](O)C(C)(C)[C@@H]1CC3 [FF-MAS, Follicular fluid meiosis-activating sterol]	combines with bexarotene (RXRg agonist) to phenocopy tasin-1, tamoxifen, or an LXR antagonist			
Cc1cc(C)c(S(=O)(=O)N(CCc2cccc(Br)c2)Cc2ccc(-c3cccc(S(C)(=O)=O)c3)cc2)c(C)c1 [SR9243]	phenocopies GSK2033, FFMAS, tasin-1 and tamoxifen			
CC(C)=CCC[C@@H](C)[C@H]1CC[C@H]2C3=C(CC[C@]12C)[C@@]1(C)CC[C@H](O)C[C@@H]1CC3 [Zymosterol]	phenocopies tasin-1, tamoxifen and LXR agonists			
C=C(c1ccc(C(=O)O)cc1)c1cc2c(cc1C)C(C)(C)CCC2(C)C [bexarotene]				cell-based OPC differentiation ECmax of bexarotene (concentration required to achieve optimal activity) ([1]; bexarotene combined with tamoxifen): ~150 nM; Cmax [2]: 2600 nM
CC/C(=C(\c1ccccc1)c1ccc(OCCN(C)C)cc1)c1ccccc1 [tamoxifen]		minimally active	significant shift in localization of LXR	steady state plasma concentration [3]: 834 nM
COc1ccc(S(=O)(=O)N2CCC(N3CCC(C)CC3)CC2)cc1 [tasin-1]		minimally active	significant shift in localization of LXR	
